Drawing on patent US8592564B2, “Immunoassays for lamotrigine” (Seradyn, Inc., priority 2004, dated 2013), this text covers cross-reactivity for 2 compounds.

In the assay the test system is anti-lamotrigine antibody. Nature of the assay: Cross-reactivity of polyclonal antibody with lamotrigine metabolites. The following applies: 500 μg/mL spiked into human serum. The assay is classed as binding. On the procedure:
A polyclonal antisera is obtained and an assay is performed in order to determine the amount of cross-reactivity of the polyclonal antibody with lamotrigine and lamotrigine metabolites. A known amount of lamotrigine is used to react with an anti-lamotrigine antibody prepared in accordance with the present invention. The known concentration of lamotrigine is used to calculate the amount of cross-reactivity between the antibody preparation and the metabolites as follows: N-methyl (29); N-oxide (30); and N-2 gluronide (31). The percent of cross-reactivity equals 100 times the observed concentration of lamotrigine in μg/mL, which is then divided by the concentration of added metabolites in μg/mL. No cross-reactivity is observed in specimens containing those metabolites. High concentrations of these compounds are spiked into human serum and tested as samples. The metabolites are assayed and compared to control serum (no lamotrigine). Cross reactivity is calculated using the following equation: […]
Also, the cross-reactivity of N-2 oxide at 500 μg/mL is less then 3%.

`C[n+]1nc(-c2cccc(Cl)c2Cl)c(N)nc1N` [N-2 methyl]: the cross-reactivity entry was “do not have any cross-reactivity”.

Take `Nc1nc(N)[n+]([O-])nc1-c1cccc(Cl)c1Cl` [N-2 oxide]: the cross-reactivity is reported as under 3%.
